Laboratory results published in patent US20060257843A1 (priority 2002, published 2006).
Where two headings read alike, the source gives them in different places.

Experiments:
[1] = target: F425G Shaker mutation (Drosophila melanogaster, UniProt P08510, F425G); details: cited from earlier work
[2] = test system: primary cultures of cortex
[3] = test system: cortical cells; details: 100 uM tolbutamide
[4] = test system: primary cortical cultures; details: 5% Triton; 20 minutes incubation

Sequence of F425G Shaker mutation (P08510 whole entry F425G): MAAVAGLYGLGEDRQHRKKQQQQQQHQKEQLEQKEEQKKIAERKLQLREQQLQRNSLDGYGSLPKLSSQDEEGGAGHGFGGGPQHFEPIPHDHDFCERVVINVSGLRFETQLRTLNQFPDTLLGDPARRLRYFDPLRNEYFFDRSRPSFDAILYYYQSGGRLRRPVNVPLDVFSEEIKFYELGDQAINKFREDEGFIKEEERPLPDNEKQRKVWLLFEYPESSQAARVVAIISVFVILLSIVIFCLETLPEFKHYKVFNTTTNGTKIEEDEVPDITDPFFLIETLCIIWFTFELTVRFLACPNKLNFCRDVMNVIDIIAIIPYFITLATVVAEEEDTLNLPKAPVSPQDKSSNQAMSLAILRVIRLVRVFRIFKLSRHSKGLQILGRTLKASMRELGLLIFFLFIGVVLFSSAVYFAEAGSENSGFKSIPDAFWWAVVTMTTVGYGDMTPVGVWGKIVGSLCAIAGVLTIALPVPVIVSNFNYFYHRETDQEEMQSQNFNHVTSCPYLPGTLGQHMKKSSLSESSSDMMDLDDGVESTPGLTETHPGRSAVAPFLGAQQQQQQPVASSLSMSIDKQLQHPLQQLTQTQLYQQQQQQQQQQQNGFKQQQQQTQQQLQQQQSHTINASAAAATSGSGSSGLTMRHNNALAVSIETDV

Molecule: charybdotoxin [reference compound]
- increase of charybdotoxin affinity by F425G Shaker mutation [1]: three orders of magnitude

Molecule: Nc1ccncc1 [4-AP, 4-aminopyridine]
- effect of K+ channel antagonist on κ-PVIIA-induced hyperpolarization ([2]; cortical preparations, 100 nM κ-PVIIA): without any detectable effect

Molecule: CCCCNC(=O)NS(=O)(=O)c1ccc(C)cc1 [Tolbutamide, reference compound]
- effect of tolbutamide on κ-PVIIA protection against glutamate cytotoxicity [3]: blocked

Molecule: COc1ccc(Cl)cc1C(=O)NCCc1ccc(S(=O)(=O)NC(=O)NC2CCCCC2)cc1 [Glibenclamide]
- effect of Glibenclamide on κ-PVIIA-induced hyperpolarization ([2]; cortical preparations, Glibenclamide 10 nM, 100 nM κ-PVIIA): significant reductions

Molecule: Iberiotoxin (QFTDVDCSVSKECWSVCKDLFGVDRGKCMGKKCRCYQ; UniProt P24663 1-37, looked up) [IBTX]
- effect of K+ channel antagonist on κ-PVIIA-induced hyperpolarization [2]: without any detectable effect

Molecule: Triton [reference compound]
- increase in fluorescence, Enzchek protease-sensitive dye [4]: ~14%
